Target: T1, BRM (Homo sapiens, UniProt P51531)
T1 construct: made in house; host or cells: High Five insect cells
Test: ATPase catalytic activity of BRM, ADP-Glo in vitro biochemical assay
Conditions: for IC50: ATPase catalytic activity, ADP-Glo, 30 nM BRM, 400 μM ATP; for Ratio*: ratio of BRG1 IC50 to BRM IC50
Protocol: The ATPase catalytic activity of BRM or BRG-1 was measured by an in vitro biochemical assay using ADP-Glo™ (Promega, V9102). The ADP-Glo™ kinase assay is performed in two steps once the reaction is complete. The first step is to deplete any unconsumed ATP in the reaction. The second step is to convert the reaction product ADP to ATP, which will be utilized by the luciferase to generate luminesce and be detected by a luminescence reader, such as Envision.
The assay reaction mixture ([…]) contains 30 nM of BRM or BRG-1, 20 nM salmon sperm DNA (from Invitrogen, UfraPure™ Salmon Sperm DNA Solution, cat #15632011), and 400 μM of ATP in the ATPase assay buffer, which comprises of 20 mM Tris, pH 8, 20 mM MgCl2, 50 mM NaCl, 0.1% Tween-20, and 1 mM fresh DTT (Piercer™ DTT (Dithiothreitol), cat #20290). The reaction is initiated by the addition of the 2.5 μL ATPase solution to 2.5 μL ATP/DNA solution on low volume white Proxiplate-384 plus plate (PerkinElmer, cat #6008280) and incubates at room temperature for 1 hour. Then, following addition of 5 μL of ADP-Glo™ Reagent provided in the kit, the reaction incubates at room temperature for 40 minutes. Then, 10 μL of Kinase Detection Reagent provided in the kit is added to convert ADP to ATP, and the reaction incubates at room temperature for 60 minutes. Finally, luminescence measurement is collected with a plate-reading luminometer, such as Envision.

T1 sequence (P51531 whole entry): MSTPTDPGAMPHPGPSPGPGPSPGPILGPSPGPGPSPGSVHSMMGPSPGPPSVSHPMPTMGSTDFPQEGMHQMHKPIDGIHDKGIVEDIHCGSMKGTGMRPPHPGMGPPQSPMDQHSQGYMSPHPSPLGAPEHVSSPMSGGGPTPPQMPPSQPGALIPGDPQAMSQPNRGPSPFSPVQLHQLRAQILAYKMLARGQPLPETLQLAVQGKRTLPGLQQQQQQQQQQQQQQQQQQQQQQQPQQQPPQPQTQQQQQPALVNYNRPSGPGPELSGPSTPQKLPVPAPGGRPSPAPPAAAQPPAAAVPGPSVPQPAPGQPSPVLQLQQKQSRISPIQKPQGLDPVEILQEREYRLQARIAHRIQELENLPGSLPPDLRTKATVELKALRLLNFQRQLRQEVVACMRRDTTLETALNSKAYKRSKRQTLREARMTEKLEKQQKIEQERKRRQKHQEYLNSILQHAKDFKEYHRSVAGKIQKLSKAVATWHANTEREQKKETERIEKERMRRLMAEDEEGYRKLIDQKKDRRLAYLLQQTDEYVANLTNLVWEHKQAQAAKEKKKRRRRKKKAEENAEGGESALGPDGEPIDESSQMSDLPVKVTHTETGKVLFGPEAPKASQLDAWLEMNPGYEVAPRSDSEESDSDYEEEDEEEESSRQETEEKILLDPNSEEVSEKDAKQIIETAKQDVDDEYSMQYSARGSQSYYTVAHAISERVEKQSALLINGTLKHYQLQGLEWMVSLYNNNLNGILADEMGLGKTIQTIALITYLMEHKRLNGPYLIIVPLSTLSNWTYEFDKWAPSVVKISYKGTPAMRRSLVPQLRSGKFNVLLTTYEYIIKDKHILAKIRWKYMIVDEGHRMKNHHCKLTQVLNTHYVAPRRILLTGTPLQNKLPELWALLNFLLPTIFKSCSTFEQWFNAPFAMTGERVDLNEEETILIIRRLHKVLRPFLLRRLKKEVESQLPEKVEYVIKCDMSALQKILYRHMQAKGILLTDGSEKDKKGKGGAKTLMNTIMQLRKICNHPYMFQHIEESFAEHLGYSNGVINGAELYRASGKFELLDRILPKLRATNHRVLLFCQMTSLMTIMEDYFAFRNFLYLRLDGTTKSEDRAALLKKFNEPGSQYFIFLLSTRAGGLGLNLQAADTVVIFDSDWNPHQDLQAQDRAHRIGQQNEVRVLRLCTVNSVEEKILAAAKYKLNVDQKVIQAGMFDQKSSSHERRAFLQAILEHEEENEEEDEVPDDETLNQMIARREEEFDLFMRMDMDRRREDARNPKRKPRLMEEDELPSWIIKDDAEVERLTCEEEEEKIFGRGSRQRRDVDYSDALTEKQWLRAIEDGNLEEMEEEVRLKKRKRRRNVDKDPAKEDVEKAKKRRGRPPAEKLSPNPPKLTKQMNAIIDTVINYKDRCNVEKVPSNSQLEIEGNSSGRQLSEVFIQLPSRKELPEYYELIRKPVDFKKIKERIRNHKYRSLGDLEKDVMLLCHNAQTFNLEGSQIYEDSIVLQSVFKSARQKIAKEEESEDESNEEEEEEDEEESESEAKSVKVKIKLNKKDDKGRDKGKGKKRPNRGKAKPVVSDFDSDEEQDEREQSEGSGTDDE

Compound	IC50 [µM]	Ratio*
CN1CC[C@@H](Oc2cccc(-c3ccc4cnc(CNC(=O)c5ccc6c(c5)S(=O)(=O)CCOC6)cc4n3)n2)C1 [Compound 328]	0.843	5.93
COc1c(-c2ccc3cnc(CNC(=O)c4ccc5c(c4)S(=O)(=O)CCOC5)cc3n2)cccc1C(F)F [Compound 343]	1.35	3.71
C[C@@H]1CN(c2cccc(-c3ccc4cnc(CNC(=O)c5cc(C6(C)CC6)c6c(c5)S(=O)(=O)CCOC6)cc4n3)n2)C[C@H](C)O1 [Compound 351]	–	1.00
O=C(NCc1cc2nc(N3C(=O)Cc4ccccc43)ccc2cn1)c1ccc2c(c1)S(=O)(=O)CCOC2 [Compound 356]	3.31	1.51
CC[C@@H]1COCc2ccc(C(=O)NCc3cc4nc(-c5cccc(N6C[C@@H](C)O[C@@H](C)C6)n5)ccc4cn3)cc2S1(=O)=O [Compound 359]	–	1.00
CC[C@H]1COCc2ccc(C(=O)NCc3cc4nc(-c5cccc(N6C[C@@H](C)O[C@@H](C)C6)n5)ccc4cn3)cc2S1(=O)=O [Compound 360]	0.974	5.14
C[C@@H]1CN(c2cccc(-c3ccc4cnc(CNC(=O)c5ccc6c(c5)S(=O)(=O)[C@@H](C)CC6)cc4n3)n2)C[C@H](C)O1 [Compound 363]	0.206	24.25
COc1ccc(C(C)(F)F)cc1-c1ccc2cnc(CNC(=O)c3ccc4c(c3)S(=O)(=O)CCOC4)cc2n1 [Compound 368]	–	1.00
C[C@@H]1CN(c2cccc(-c3ccc4cnc(CNC(=O)c5cccc(S(=O)(=O)C6CC6)c5)cc4n3)n2)C[C@H](C)O1 [Compound 371]	0.196	25.45
O=C(NCc1cc2nc(-n3cccc(N4CCOCC4)c3=O)ccc2cn1)c1ccc2c(c1)S(=O)(=O)CCOC2 [Compound 401]	1.32	3.79
CCOc1cc(C)cc(-c2ccc3cnc(CNC(=O)c4ccc5c(c4)S(=O)(=O)[C@@H](C)COC5)cc3n2)n1 [Compound 417]	0.253	19.79
C[C@@H]1CN(c2cccc(-c3ccc4cnc(CNC(=O)c5cc(Cl)c6c(c5)S(=O)(=O)[C@H](C)COC6)cc4n3)n2)C[C@H](C)O1 [Compound 432]	1.5	3.34
C[C@@H]1COCc2ncc(C(=O)NCc3cc4nc(-c5cccc(C6CC6)n5)ccc4cn3)cc2S1(=O)=O [Compound 455]	–	1.00
C[C@@H]1CN(c2cccc(-c3ccc4cnc(CNC(=O)c5ccc6c(c5)S(=O)(=O)CCO[C@H]6C5CC5)cc4n3)n2)C[C@H](C)O1 [Compound 459]	0.192	25.98
Cc1cc(C(=O)NCc2cc3nc(-c4cccc(N5C[C@@H](C)O[C@@H](C)C5)n4)ccc3cn2)cc2c1OCC[C@@H](C)S2(=O)=O [Compound 461]	1.59	3.15
Cc1cc(C(=O)NCc2cc3nc(-c4cccc(N5C[C@@H](C)O[C@@H](C)C5)n4)ccc3cn2)cc2c1COC[C@@H](C)S2(=O)=O [Compound 462]	1.72	2.92
C[C@@H]1CN(c2cccc(-c3ccc4cnc(CNC(=O)c5cc(Cl)c6c(c5)S(=O)(=O)[C@H](C)CCO6)cc4n3)n2)C[C@H](C)O1 [Compound 486]	1.16	4.29
C[C@@H]1CCS(=O)(=O)c2cc(C(=O)NCc3cc4nc(-c5cccc(N6C[C@@H](C)O[C@@H](C)C6)n5)ccc4cn3)cc(Cl)c2O1 [Compound 505]	0.539	9.28
C[C@@H]1CN(c2cccc(-c3ccc4cnc(CNC(=O)c5ccc6c(c5)S(=O)(=O)[C@@H](C)CO[C@@H]6C)cc4n3)n2)C[C@H](C)O1 [Compound 517]	0.429	11.66
C[C@@H]1CN(c2cccc(-c3ccc4cnc(CNC(=O)c5ccc6c(c5)S(=O)(=O)[C@H](C)CO[C@H]6C)cc4n3)n2)C[C@H](C)O1 [Compound 518]	4.56	1.10
C[C@@H]1CN(c2cccc(-c3ccc4cnc(CNC(=O)c5ccc6c(c5)S(=O)(=O)C5(CC6)CC5)cc4n3)n2)C[C@H](C)O1 [Compound 531]	–	28.30

Compound	IC50 [µM]	Ratio*
CC1CN(c2cccc(-c3ccc4cnc(CNC(=O)c5ccc6c(c5)S(=O)(=O)C(C)COC6C)cc4n3)n2)CC(C)O1 (stereo not drawn) [Compound 535]	0.637	7.84
Cc1cc(C(=O)NCc2cc3nc(-c4cccc(N5C[C@@H](C)O[C@@H](C)C5)n4)ccc3cn2)cc2c1O[C@H](C)CCS2(=O)=O [Compound 541]	0.131	38.11
O=C(NCc1cc2nc(N3CCc4nccnc4C3)ccc2cn1)c1ccc2c(c1)S(=O)(=O)CCOC2 [Compound 546]	1.82	2.75
C[C@@H]1CN(c2cccc(-c3ccc4cnc(CNC(=O)c5cc(Cl)c6c(c5)S(=O)(=O)CCO[C@H]6C)cc4n3)n2)C[C@H](C)O1 [Compound 547]	0.293	17.08
CC1Cc2cccnc2N(c2ccc3cnc(CNC(=O)c4ccc5c(c4)S(=O)(=O)CCOC5)cc3n2)C1 (stereo not drawn) [Compound 556]	1.7	2.94
C[C@@H]1CN(c2cccc(-c3ccc4cnc(CNC(=O)c5ccc6c(c5)S(=O)(=O)CCC(C)(C)O6)cc4n3)n2)C[C@H](C)O1 [Compound 559]	3.93	1.27
C[C@@H]1CN(c2cccc(-c3ccc4cnc(CNC(=O)c5ccc6c(c5)S(=O)(=O)[C@H](C)CN6C)cc4n3)n2)C[C@H](C)O1 [Compound 560]	0.498	10.04
CO[C@H](C)c1ccc2c(n1)N(c1ccc3cnc(CNC(=O)c4ccc5c(c4)S(=O)(=O)CCOC5)cc3n1)CCC2 [Compound 562]	0.425	11.77
O=C(NCc1cc2nc(N3CCCc4ccc(C(F)F)nc43)ccc2cn1)c1ccc2c(c1)S(=O)(=O)CCOC2 [Compound 563]	–	16.52
O=C(NCc1cc2nc(N3CCCc4ccc(C(F)F)nc43)ccc2cn1)c1ccc2c(c1)S(=O)(=O)CCOC2 [Compound 571]	–	6.87
CC1CN(c2cccc(-c3ccc4cnc(CNC(=O)c5cnc6c(c5)S(=O)(=O)CCC5CC65)cc4n3)n2)CC(C)O1 (stereo not drawn) [Compound 577]	–	3.78
CC1CN(c2cccc(-c3ccc4cnc(CNC(=O)c5cnc6c(c5)S(=O)(=O)CCC5CC65)cc4n3)n2)CC(C)O1 (stereo not drawn) [Compound 579]	–	4.40
C[C@@H]1CN(c2cccc(-c3ccc4cnc(CNC(=O)c5ccc6c(c5)S(=O)(=O)CC[C@H](C(F)F)O6)cc4n3)n2)C[C@H](C)O1 [Compound 582]	1.24	4.05
CC[C@H]1CCS(=O)(=O)c2cc(C(=O)NCc3cc4nc(-c5cccc(N6C[C@@H](C)O[C@@H](C)C6)n5)ccc4cn3)ccc2O1 [Compound 584]	0.793	6.31
C[C@@H]1CN(c2cccc(-c3ccc4cnc(CNC(=O)c5cnc6c(c5)S(=O)(=O)[C@H](C)CC6)cc4n3)n2)C[C@H](C)O1 [Compound 596]	0.681	7.34
C[C@@H]1CN(c2cccc(-c3ccc4cnc(CNC(=O)c5cc(C6CCC6)c6c(c5)S(=O)(=O)CCOC6)cc4n3)n2)C[C@H](C)O1 [Compound 631]	1.19	4.19
COC1Cc2cccnc2N(c2ccc3cnc(CNC(=O)c4ccc5c(c4)S(=O)(=O)CCOC5)cc3n2)C1 (stereo not drawn) [Compound 633]	2.23	2.24
CO[C@@H](c1ccc2c(n1)N(c1ccc3cnc(CNC(=O)c4ccc5c(c4)S(=O)(=O)CCOC5)cc3n1)CCC2)C1CC1 [Compound 663]	0.673	7.43
CO[C@H](c1ccc2c(n1)N(c1ccc3cnc(CNC(=O)c4ccc5c(c4)S(=O)(=O)CCOC5)cc3n1)CCC2)C1CC1 [Compound 664]	1.75	2.86
O=C(NCc1cc2nc(-c3cccc4c3CN(C3COC3)CC4)ccc2cn1)c1ccc2c(c1)S(=O)(=O)CCOC2 [Compound 671]	4	1.25
COCCN1CCc2cccc(-c3ccc4cnc(CNC(=O)c5ccc6c(c5)S(=O)(=O)CCOC6)cc4n3)c2C1 [Compound 674]	3.78	1.32

From US20230416248A1, “COMPOUNDS AND USES THEREOF” (Foghorn Therapeutics Inc., priority 2020, published 2023)
